Assay results as given in PubChem BioAssay (NCI).
Where “and” joins values, the source holds several entries; their conditions need not be identical. Identical values can stand only once.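 Values below derive from 48-hour exposures of cells grown in 96-well plates, with endpoints linearly interpolated between the two concentrations bracketing the appropriate inhibition level. Abbreviation: GI50, concentration required for 50% inhibition of growth. TGI denotes the concentration required for complete inhibition of growth.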

How the values were obtained:
Assay in all cases: growth of human tumour cells (NCI), 48 h
RXF 393 renal = tested on: RXF 393 renal
U251 CNS = tested on: U251 CNS
DU-145 prostate = tested on: DU-145 prostate
ACHN renal = tested on: ACHN renal
A498 renal = tested on: A498 renal
COLO 205 colon = tested on: COLO 205 colon
HCT-15 colon = tested on: HCT-15 colon
HCC-2998 colon = tested on: HCC-2998 colon
MALME-3M melanoma = tested on: MALME-3M melanoma
CCRF-CEM leukemia = tested on: CCRF-CEM leukemia

| SMILES | TGI (RXF 393 renal) | TGI (U251 CNS) | TGI (DU-145 prostate) | TGI (ACHN renal) | TGI (A498 renal) | TGI (COLO 205 colon) | TGI (HCT-15 colon) | TGI (HCC-2998 colon) | TGI (MALME-3M melanoma) | TGI (CCRF-CEM leukemia) [µM] | GI50 (RXF 393 renal) [µM] | GI50 (U251 CNS) [µM] | GI50 (DU-145 prostate) [µM] | GI50 (ACHN renal) [µM] | GI50 (A498 renal) [µM] | GI50 (COLO 205 colon) [µM] | GI50 (HCT-15 colon) [µM] | GI50 (HCC-2998 colon) [µM] | GI50 (MALME-3M melanoma) | GI50 (CCRF-CEM leukemia) |
| --- | --- | --- | --- | --- | --- | --- | --- | --- | --- | --- | --- | --- | --- | --- | --- | --- | --- | --- | --- | --- |
| NC(=O)[C@H](Cc1ccc(O)cc1)Nc1c(O)c2c(c(O)c1Cl)C(=O)C=CC2=O | 9.56 µM | > 8.11 µM | > 10 µM | 6.61 µM | > 10 µM | 3.36 µM | 3.89 µM | > 3.16 µM | 3.78 µM | 1.04 | – | – | – | – | – | – | – | – | – | – |
| COc1cc2c(cc1O)C1Cc3ccc(OC)c(O)c3C[N+]1(C)CC2 (configuration not stated) | > 100 µM | > 100 µM | > 100 µM | > 100 µM | > 100 µM | > 100 µM | > 100 µM | > 100 µM | > 100 µM | > 100 | – | – | – | – | – | – | – | – | – | – |
| CC(Nc1ccc(Cl)cc1)c1ccncc1 (configuration not stated) | > 100 µM | > 100 µM | > 100 µM | > 100 µM | > 100 µM | > 100 µM | > 100 µM | > 100 µM | > 100 µM | > 100 | – | – | – | – | – | – | – | – | – | – |
| N#C/C(=C\c1ccc2[nH]ccc2c1)C(=O)NCCCCNC(=O)/C(C#N)=C/c1ccc2[nH]ccc2c1 | > 10 µM | > 31.6 µM | > 10 µM | > 31.6 µM | > 31.6 µM | > 31.6 µM | > 31.6 µM | > 31.6 µM | > 31.6 µM | > 31.6 | – | – | – | – | – | – | – | – | – | – |
| CCOC(=O)NC(=S)N(CC(=O)c1cc(OC)c(OC)c(OC)c1)c1ccc(Cl)cc1 | 89.7 µM | > 100 µM | > 100 µM | > 100 µM | > 100 µM | > 100 µM | > 100 µM | > 100 µM | > 100 µM | > 100 | 17.2 | 99.7 | 79.1 | > 100 | 90.1 | > 100 | 62.6 | 33.4 | > 100 µM | 71.4 µM |
| C=C1c2nc3ccccc3n2C=C(c2ccc(C)cc2)N1c1ccc(OC)cc1 | > 100 µM | > 100 µM | > 100 µM | > 100 µM | > 100 µM | > 100 µM | > 100 µM | > 100 µM | > 100 µM | > 100 | – | – | – | – | – | – | – | – | – | – |
| C[n+]1cccc2ccc3cccnc3c21 | > 100 µM | > 100 µM | > 100 µM | > 100 µM | > 100 µM | 70 µM | > 100 µM | > 100 µM | 49.9 µM | > 100 | – | – | – | – | – | – | – | – | – | – |
| Nc1[nH]c(=O)nc2c1ncn2C1OC(CO)C(O)C1O (configuration not stated) | > 100 µM | > 100 µM | 66.3 µM | > 100 µM | > 100 µM | > 100 µM | 95.4 µM | 88.9 µM | > 100 µM | 75.3 | – | – | – | – | – | – | – | – | – | – |
| COC(=O)C1OC(O[C@H]2CC[C@]3(C)[C@H]4CC=C5[C@@H]6CC(C)(C)CC[C@]6(C(=O)OC6OCC(O)C(O)C6OC6OC(C)C(OC7OCC(O)C(O)C7O)C(O)C6O)[C@H](O)C[C@@]5(C)[C@]4(C)CC[C@H]3C2(C)C)C(O)C(O)C1O (some centres not stated) | 29 µM and 31.2 µM | 17.7 µM and 19.8 µM | > 57.7 µM and 26.5 µM | 14.6 µM and 14.9 µM | 3.55 µM and 3.85 µM | 3.02 µM and 3.31 µM | 42.8 µM and 27.5 µM | 6.71 µM and 3.44 µM | 16.2 µM and 23.6 µM | > 100 | – | – | – | – | – | – | – | – | 4.78 µM and 11.2 µM | > 68.4 µM and 13.5 µM |
| CCOC(=O)c1cc(-c2ccc(OC)cc2)c([N+](=O)[O-])[nH]1 | > 10 µM | > 10 µM | > 10 µM | > 10 µM | > 10 µM | > 10 µM | > 10 µM | > 10 µM | > 10 µM | > 10 | – | – | – | – | – | – | – | – | – | – |
| O=C1Nc2ccccc2/C1=C\c1c(Cl)n(-c2ccccc2)c2ccccc12 | 10.9 µM | 18.2 µM | 8.91 µM | 29.7 µM | 22.2 µM | 4.13 µM | 18.1 µM | 9.83 µM | 10.4 µM | > 100 | – | – | – | – | – | – | – | – | – | – |
| CC1=NN(C(=O)CC(=O)Nc2cccc(C)c2)C(=O)C1N=Nc1ccc(S(=O)(=O)CCOS(=O)(=O)O)cc1 (configuration not stated) | 22 µM | 13.6 µM | > 100 µM | 17.1 µM | 37.1 µM | 8.42 µM | 4.83 µM | 5.51 µM | 13.6 µM | > 100 | – | – | – | – | – | – | – | – | – | – |
| O=C1c2cc3c(cc2-c2c1c1cc(F)c(F)cc1c(=O)n2CCCn1ccnc1)OCO3 | 0.169 µM | 10.2 µM | > 100 µM | 0.134 µM | 0.116 µM | 1.62 µM | > 100 µM | > 100 µM | 1.21 µM | > 100 | 0.036 | < 0.01 | < 0.01 | < 0.01 | 0.0233 | 0.0293 | 0.117 | 0.195 | 0.0856 µM | < 0.01 µM |
| COC1(CC[C@@H](C)COC2OC(CO)C(O)C(O)C2O)OC2C[C@H]3[C@@H]4CC[C@H]5C[C@@H](OC6OC(CO)C(OC7OC(CO)C(O)C(O)C7O)C(O)C6OC6OC(C)C(O)C(O)C6O)[C@H](O)C[C@]5(C)[C@H]4CC[C@]3(C)C2[C@@H]1C (some centres not stated) | 3.85 µM | 3.49 µM | 3.92 µM | 3.33 µM | 3.38 µM | 6.69 µM | > 22.8 µM | 3.24 µM | 3.33 µM | 3.9 | – | – | – | – | – | – | – | – | – | – |
| COc1ccc(-c2ccc(C(=O)C=P(c3ccccc3)(c3ccccc3)c3ccccc3)cc2)cc1 | 27 µM | 31.9 µM | 39.4 µM | 30.7 µM | 31.9 µM | 13.9 µM | 29.6 µM | 15.2 µM | 43.9 µM | > 100 | – | – | – | – | – | – | – | – | – | – |
| N#Cc1c(NC(=S)Nc2ccc(Cl)cc2)sc2c1CCN(N1CCc3c(sc(NC(=S)Nc4ccc(Cl)cc4)c3C#N)C1)C2 | 78.3 µM | 86.2 µM | > 100 µM | > 100 µM | 36.9 µM | 33.4 µM | > 100 µM | > 100 µM | > 100 µM | > 100 | – | – | – | – | – | – | – | – | – | – |
| C/C(=N\Nc1nc2ccccc2s1)c1ccncn1 | 24.7 µM | > 100 µM | > 66.1 µM | 11.8 µM | > 100 µM | 11.1 µM | 15.9 µM | > 41.9 µM | 20.3 µM | > 100 | – | – | – | – | – | – | – | – | – | – |
